{"source": "paper PMC11950852", "about": "“Diversity Scale of Library Matters: Impact of mRNA Library Diversity Scales on the Discovery of Macrocyclic Peptides Targeting a Protein by the RaPID System” (ACS Central Science, 2025)", "molecules": {"B1": {"name": "macrocyclic peptide 10-6 (peptide)", "chain": "{CH2CO}-YWWYYWYRDEYLWRTRCG-NH2", "modifications": "thioether N-17", "SMILES": "CC(C)C[C@@H]1NC(=O)[C@H](Cc2ccc(O)cc2)NC(=O)[C@H](CCC(=O)O)NC(=O)[C@H](CC(=O)O)NC(=O)[C@H](CCCNC(=N)N)NC(=O)[C@H](Cc2ccc(O)cc2)NC(=O)[C@H](Cc2c[nH]c3ccccc23)NC(=O)[C@H](Cc2ccc(O)cc2)NC(=O)[C@H](Cc2ccc(O)cc2)NC(=O)[C@H](Cc2c[nH]c3ccccc23)NC(=O)[C@H](Cc2c[nH]c3ccccc23)NC(=O)[C@H](Cc2ccc(O)cc2)NC(=O)CSC[C@@H](C(=O)NCC(N)=O)NC(=O)[C@H](CCCNC(=N)N)NC(=O)[C@H]([C@@H](C)O)NC(=O)[C@H](CCCNC(=N)N)NC(=O)[C@H](Cc2c[nH]c3ccccc23)NC1=O"}, "B2": {"name": "macrocyclic peptide 10-5 (peptide)", "chain": "{CH2CO}-YLLWHKYDNKDWVYVDCG-NH2", "modifications": "thioether N-17", "SMILES": "CC(C)C[C@@H]1NC(=O)[C@H](Cc2ccc(O)cc2)NC(=O)CSC[C@@H](C(=O)NCC(N)=O)NC(=O)[C@H](CC(=O)O)NC(=O)[C@H](C(C)C)NC(=O)[C@H](Cc2ccc(O)cc2)NC(=O)[C@H](C(C)C)NC(=O)[C@H](Cc2c[nH]c3ccccc23)NC(=O)[C@H](CC(=O)O)NC(=O)[C@H](CCCCN)NC(=O)[C@H](CC(N)=O)NC(=O)[C@H](CC(=O)O)NC(=O)[C@H](Cc2ccc(O)cc2)NC(=O)[C@H](CCCCN)NC(=O)[C@H](Cc2c[nH]cn2)NC(=O)[C@H](Cc2c[nH]c3ccccc23)NC(=O)[C@H](CC(C)C)NC1=O"}, "B3": {"name": "macrocyclic peptide 10-2 (peptide)", "chain": "{CH2CO}-YWYYTFDGRWKEYGAACG-NH2", "modifications": "thioether N-17", "SMILES": "C[C@@H]1NC(=O)CNC(=O)[C@H](Cc2ccc(O)cc2)NC(=O)[C@H](CCC(=O)O)NC(=O)[C@H](CCCCN)NC(=O)[C@H](Cc2c[nH]c3ccccc23)NC(=O)[C@H](CCCNC(=N)N)NC(=O)CNC(=O)[C@H](CC(=O)O)NC(=O)[C@H](Cc2ccccc2)NC(=O)[C@H]([C@@H](C)O)NC(=O)[C@H](Cc2ccc(O)cc2)NC(=O)[C@H](Cc2ccc(O)cc2)NC(=O)[C@H](Cc2c[nH]c3ccccc23)NC(=O)[C@H](Cc2ccc(O)cc2)NC(=O)CSC[C@@H](C(=O)NCC(N)=O)NC(=O)[C@H](C)NC1=O"}, "B4": {"name": "macrocyclic peptide 12-2 (peptide)", "chain": "{CH2CO}-YYSWSGNVSESVKWNSCG-NH2", "modifications": "thioether N-17", "SMILES": "CC(C)[C@@H]1NC(=O)[C@H](CC(N)=O)NC(=O)CNC(=O)[C@H](CO)NC(=O)[C@H](Cc2c[nH]c3ccccc23)NC(=O)[C@H](CO)NC(=O)[C@H](Cc2ccc(O)cc2)NC(=O)[C@H](Cc2ccc(O)cc2)NC(=O)CSC[C@@H](C(=O)NCC(N)=O)NC(=O)[C@H](CO)NC(=O)[C@H](CC(N)=O)NC(=O)[C@H](Cc2c[nH]c3ccccc23)NC(=O)[C@H](CCCCN)NC(=O)[C@H](C(C)C)NC(=O)[C@H](CO)NC(=O)[C@H](CCC(=O)O)NC(=O)[C@H](CO)NC1=O"}}, "key": {"cMET": {"target": "cMET", "settings": "cited from earlier work", "protocol": "To answer our questions raised in the introduction, we chose the ectodomain of MET fused to Fc as a selection target for two reasons. (1) Since we previously performed the RaPID campaign using a thioether-macrocyclic peptide library and successfully identified potent ligands with the range of KD of 2–20 nM (Table S1A), this target has been validated as a reliable protein to reproduce the selection experiment.[22] (2) At the time when the selection was performed previously, the NGS technology was unavailable in our laboratory, and thereby the sequences were determined by ∼40 clones available fr ... || page 9: Table S1A. Representative peptide sequences discovered by RaPID system. Residues engaged in thioether- macrocyclization are marked with asterisks. mRNA display (RaPID system) Diversity scale: >1012 Screening KD IC50 Library design/ Consensus motif/ Variants Reference Target (nM) (nM) Note Peptide sequence DW*X2MeSX2MeF-MeG/X- E6AP 0.6 DW*X8-15C* 6 (32) XMeFPC* 92 LY*WIX2TWPXVXRXC* 2 Akt2 L/DY*X4-12C* (33) 110 LY*ILVRNRXLRVDC* 2 3.8 LY*SNFRI-LysTfa-RYSNSSC* 21 SIRT2 L/DY*-Xn-LysTfa-XnC* (34) 3.7 DY*HDYRI-LysTfa-RYHTYPC* 16 94 LF*VVVSTDPWVNGLYIDC* 2 8 LF*IGHYRVKVHPISLERC* 1 VEGFR2 L/DF*X ..."}, "[1]": {"target": "Fc-fused MET (His-/hFc-tagged human MET ectodomain) (Homo sapiens, UniProt P08581)", "test": "SPR binding kinetics of selected macrocyclic peptides to Fc-fused MET"}, "[2]": {"target": "T1, ectodomain of MET (hepatocyte growth factor receptor) fused to Fc (UniProt P08581 25-932)", "T1 construct": "MET, hepatocyte growth factor receptor, a receptor tyrosine kinase; ectodomain; also called MET-Fc; Fc-tagged MET", "test": "SPR; macrocyclic peptides on MET; concentration-dependent sensorgrams fitted by a 1:1 binding model", "settings": "both partners purified"}, "[3]": {"target": "T2, ectodomain of MET fused to Fc (UniProt P08581 25-932)", "T2 chain": "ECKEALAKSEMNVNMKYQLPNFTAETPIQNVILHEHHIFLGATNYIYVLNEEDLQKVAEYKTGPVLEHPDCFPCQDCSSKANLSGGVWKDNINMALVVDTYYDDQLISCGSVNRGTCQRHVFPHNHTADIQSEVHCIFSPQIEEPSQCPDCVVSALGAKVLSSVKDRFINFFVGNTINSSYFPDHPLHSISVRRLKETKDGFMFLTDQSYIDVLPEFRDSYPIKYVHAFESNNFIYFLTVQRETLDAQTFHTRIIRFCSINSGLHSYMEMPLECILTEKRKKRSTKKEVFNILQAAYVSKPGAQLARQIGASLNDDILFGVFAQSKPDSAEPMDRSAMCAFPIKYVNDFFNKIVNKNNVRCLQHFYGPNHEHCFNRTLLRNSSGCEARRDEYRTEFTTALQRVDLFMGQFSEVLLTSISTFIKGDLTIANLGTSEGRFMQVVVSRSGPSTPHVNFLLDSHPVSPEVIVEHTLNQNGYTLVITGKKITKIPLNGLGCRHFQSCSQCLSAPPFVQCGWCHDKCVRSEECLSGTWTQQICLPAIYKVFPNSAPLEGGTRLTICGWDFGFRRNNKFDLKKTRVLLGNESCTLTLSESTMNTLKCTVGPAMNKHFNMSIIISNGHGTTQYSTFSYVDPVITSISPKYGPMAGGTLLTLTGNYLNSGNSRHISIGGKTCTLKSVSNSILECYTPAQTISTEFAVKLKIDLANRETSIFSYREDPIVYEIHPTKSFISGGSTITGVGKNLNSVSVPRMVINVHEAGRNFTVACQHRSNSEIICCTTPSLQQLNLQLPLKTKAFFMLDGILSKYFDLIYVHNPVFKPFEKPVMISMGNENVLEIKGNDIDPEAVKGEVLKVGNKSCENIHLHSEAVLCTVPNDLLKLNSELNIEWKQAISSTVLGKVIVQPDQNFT", "test": "SPR"}, "[4]": {"target": "T1, ectodomain of MET (hepatocyte growth …)", "test": "SPR; macrocyclic peptides on MET; concentration-dependent sensorgrams fitted by a 1:1 binding model", "settings": "both partners purified", "remark": "listed apart in the source"}, "[5]": {"settings": "library L/DY*X4-15C*, mRNA display (RaPID system), ref (16), read-out: KD (Table S1A, screening target cMET)"}}, "note": "Where two headings read alike, the source gives them in different places. Where a SMILES comes first, the peptide text is derived from it. Bridges are numbered along the chain shown (N, C = ends)."}
{"molecule": "CC[C@H](C)[C@@H]1NC(=O)[C@H](Cc2ccc(O)cc2)NC(=O)CSC[C@@H](C(=O)NCC(N)=O)NC(=O)[C@H]([C@@H](C)O)NC(=O)[C@H]([C@@H](C)CC)NC(=O)[C@H](Cc2ccccc2)NC(=O)[C@H](CCCNC(=N)N)NC(=O)[C@H](Cc2c[nH]c3ccccc23)NC(=O)[C@H](CC(N)=O)NC(=O)[C@@H]2CCCN2C(=O)[C@H](CO)NC(=O)[C@H](CC(N)=O)NC(=O)[C@H](Cc2ccccc2)NC(=O)[C@H](CCC(=O)O)NC(=O)[C@H](CC(N)=O)NC(=O)[C@H](Cc2c[nH]c3ccccc23)NC(=O)[C@H](CO)NC1=O", "note": "[aML5, reference compound] ({CH2CO}-YISWNEFNSPNWRFITCG-NH2; thioether N-17)", "values": [{"measurement": "Kd", "setting": "cMET; previously determined value, read-out: KD (previous RaPID campaign)", "value": 19, "unit": "nM"}, {"measurement": "kd", "setting": "[1]; SPR conditions as E1", "value": 0.00606, "unit": "s⁻¹"}, {"measurement": "kon", "setting": "[1]; pH 7.4, read-out: ka", "value": 539000, "unit": "M⁻¹ s⁻¹"}, {"measurement": "kon", "setting": "[1]; read-out: ka, Measure 1", "value": 371000, "unit": "M⁻¹ s⁻¹"}, {"measurement": "kon", "setting": "[1]; read-out: ka, Measure 2", "value": 405000, "unit": "M⁻¹ s⁻¹"}]}
{"molecule": "DY*RQFNRRTHEVWNLDC* (sidechain bridge or staple)", "values": [{"measurement": "Kd", "setting": "cMET; [5]", "value": 2.4, "unit": "nM"}]}
{"molecule": "DY*WYYAWDQTYKAFPC* (sidechain bridge or staple)", "values": [{"measurement": "Kd", "setting": "cMET; [5]", "value": 2.3, "unit": "nM"}]}
{"molecule": "B1", "values": [{"measurement": "Kd", "setting": "[2]", "value": 219, "unit": "nM"}]}
{"molecule": "B2", "values": [{"measurement": "Kd", "setting": "[2]", "value": 19.5, "unit": "nM"}, {"measurement": "koff", "setting": "[3]", "value": 0.00694, "unit": "s⁻¹"}]}
{"molecule": "B3", "values": [{"measurement": "Kd", "setting": "[2]", "value": 31, "unit": "nM"}]}
{"molecule": "{CH2CO}-YIEWNRFNSKLWNCNCCG-NH2 (thioether N-17; cysteine pairing not given here)", "note": "[macrocyclic peptide 10-4]", "values": [{"measurement": "Kd", "setting": "[2]", "value": 308, "unit": "nM"}]}
{"molecule": "B4", "values": [{"measurement": "Kd", "setting": "[4]", "value": 8.67, "unit": "nM"}]}
